We go through five molecules from article PMC10815500, “Design of Two New Sulfur Derivatives of Perezone: In Silico Study Simulation Targeting PARP-1 and In Vitro Study Validation Using Cancer Cell Lines” (International Journal of Molecular Sciences, 2024).

Structures are written as SMILES. Where two headings read alike, the source gives them in different places. Some results are limits rather than exact numbers.

For experiment [1], the target named is T1, PARP-1 enzyme (Homo sapiens, UniProt P09874). Also on record: purchased BPS Bioscience Inc. 80580. Conditions: previously demonstrated; read-out: IC50 (PARP-1 inhibition) of perezone and natural derivatives; cited from earlier work.
In experiment [2] the test system is A-549. The experiment in a line: MTT cytotoxic assay, A-549 cells. It is filed as cell-based. Conditions: Homo sapiens, A549, cancer cell line, 48 h, read-out: Inhibitory concentration (IC50) A-549. As for the experimental part: (§1) At the end of this time, 20 µL of the MTT solution (5 mg/mL) was added to each well and incubated for 4 h in the dark at 37 °C and 5% CO2. The supernatant was decanted, and the resulting formazan was dissolved in isopropyl alcohol with 4 mM HCl solution and was read in a UV/Vis reader at 590 nm. The results obtained were plotted, and the IC50 was obtained through linear regression.

Experiment [3] relates to MDA-MB-231. Briefly: MTT cytotoxic assay, MDA-MB-231 cells. Conditions: Homo sapiens, cancer cell line, 48 h, read-out: Inhibitory concentration (IC50) MDA-MB-231. It is filed as cell-based. The procedure: as §1
(Formazan colour is commonly taken as a measure of viable cells.)

In experiment [4] the test system is HELA. Briefly: MTT cytotoxic assay, Hela cells. In kind it is cell-based. Conditions: Homo sapiens, cancer cell line, 48 h, read-out: Inhibitory concentration (IC50) HELA. The procedure: as §1
Experiment [5] relates to MCF-7. The experiment in a line: MTT cytotoxic assay, MCF-7 cells. The note with it: Homo sapiens, MCF7, cancer cell line, 48 h, read-out: Inhibitory concentration (IC50) MCF-7. It is filed as cell-based. As for the experimental part:
as §1

For experiment [6], the system named is Rat endothelial cells. The experiment in a line: MTT cytotoxic assay, healthy endothelial cells. It is filed as cell-based. The note with it: Endothelial cell, normal cell line, 48 h, read-out: Inhibitory concentration (IC50) Rat endothelial cells. As for the experimental part:
(§2) At the end of this time, 20 µL of the MTT solution (5 mg/mL) was added to each well and incubated for 4 h in the dark at 37 °C and 5% CO2. The supernatant was decanted, and the resulting formazan was dissolved in isopropyl alcohol with 4 mM HCl solution and was read in a UV/Vis reader at 590 nm. The results obtained were plotted, and the IC50 was obtained through linear regression. […]
(§3) of the incubation, an MTT assay was performed to determine the viability of cells under treatment. Each bar in the chart indicates the percentage means and standard error of the mean. […]
(§4) healthy endothelial cells, VERO cells, and mixed culture of microglia, employing perezone (dotted) as a control. Cells from each line were incubated without control and with increased concentrations of the studied compounds during 48 h (n= 8). At the end of the incubation, an MTT assay was performed to determine the viability of cells under treatment. Each bar in the chart indicates the percentage means and […]
(§5) (1 picture or pasted object on this page, not shown here)

In experiment [7] the test system is VERO. The experiment in a line: MTT cytotoxic assay, VERO cells. In kind it is cell-based. Conditions: Chlorocebus sabaeus, normal cell line, 48 h, read-out: Inhibitory concentration (IC50) VERO. As for the experimental part: as §2, §3, §4, §5
Experiment [8] deals with Mix cells. Briefly: MTT cytotoxic assay, mixed culture of microglia. It is filed as cell-based. Conditions: normal cells, 48 h, read-out: Inhibitory concentration (IC50) Mix cells. The procedure: as §2, §3, §4, §5
Experiment [9] has as its target T1, PARP-1 enzyme. Briefly: PARP-1 inhibition assay (colorimetric assay kit).
Text: Absorbances were obtained at 450 nm using a UV/Vis spectrophotometer E max Precision microplate reader (Molecular Devices, San Jose, CA, USA).

T1 sequence (P09874 whole entry): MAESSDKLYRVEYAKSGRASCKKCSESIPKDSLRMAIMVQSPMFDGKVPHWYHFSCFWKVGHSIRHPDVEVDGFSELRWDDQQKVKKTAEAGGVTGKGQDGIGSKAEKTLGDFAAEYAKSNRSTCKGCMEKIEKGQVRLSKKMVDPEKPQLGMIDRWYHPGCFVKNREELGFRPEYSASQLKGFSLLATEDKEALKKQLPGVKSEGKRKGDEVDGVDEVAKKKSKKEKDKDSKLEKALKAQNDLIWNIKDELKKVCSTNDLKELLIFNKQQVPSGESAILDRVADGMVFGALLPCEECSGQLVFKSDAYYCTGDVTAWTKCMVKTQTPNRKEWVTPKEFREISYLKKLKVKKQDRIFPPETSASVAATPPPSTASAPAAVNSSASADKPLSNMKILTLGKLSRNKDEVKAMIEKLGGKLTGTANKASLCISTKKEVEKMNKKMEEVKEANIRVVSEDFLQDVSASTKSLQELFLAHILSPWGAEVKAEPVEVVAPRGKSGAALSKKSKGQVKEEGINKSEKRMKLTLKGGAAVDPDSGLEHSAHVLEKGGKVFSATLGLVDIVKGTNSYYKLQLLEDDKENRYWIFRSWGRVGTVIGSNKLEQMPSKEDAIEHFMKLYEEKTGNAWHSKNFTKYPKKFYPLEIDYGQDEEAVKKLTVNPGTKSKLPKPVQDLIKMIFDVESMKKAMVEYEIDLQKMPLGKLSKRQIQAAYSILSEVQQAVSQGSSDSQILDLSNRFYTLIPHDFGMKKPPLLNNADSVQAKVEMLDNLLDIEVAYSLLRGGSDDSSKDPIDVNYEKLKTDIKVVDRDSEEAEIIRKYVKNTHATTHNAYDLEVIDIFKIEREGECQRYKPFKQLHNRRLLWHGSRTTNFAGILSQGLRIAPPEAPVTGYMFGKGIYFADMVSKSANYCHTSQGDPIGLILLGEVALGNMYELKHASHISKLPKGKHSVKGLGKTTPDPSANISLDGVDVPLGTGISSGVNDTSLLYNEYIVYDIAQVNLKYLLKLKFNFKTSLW

Take `CC(C)=CCC[C@@H](C)C1=C(O)C(=O)C(C)=C(O)C1=O` [Compound 3, hydroxyperezone]: the IC50 in [1] is 320 µM.

Regarding `CC(C)=CCCC(C)C1=C(O)C(=O)C(C)=C(Sc2ccc(CC(=O)O)cc2)C1=O` (centres unmarked) [Compound 10, 2-(4-((hydroxy-2-methyl-5-(6-methylhept-5-en-2-yl)-3,6-dioxocyclohexa-1,4-dien-1-yl)thio)phenyl)acetic acid], the IC50 in [2] was greater than 200 µM; in experiment [3], greater than 200 µM; in [4], greater than 200 µM; in experiment [5], greater than 200 µM; in [6], greater than 200 µM; in [7], 168 µM. Besides, the IC50 in experiment [8] is greater than 200 µM; in experiment [9], 320 nM.

With `CC(C)=CCC[C@@H](C)C1=C(O)C(=O)C(C)=CC1=O` [Compound 1, perezone], the IC50 in [2] is 144 µM; in experiment [3], 7.8 µM; in [4], 42.3 µM; in experiment [5] it was 53.2 µM; in experiment [6], greater than 200 µM; in experiment [7], 312 µM. Moreover, the IC50 was 63.1 µM in experiment [8] and 181 µM in [1].

As to `C/C=C(/C)C(=O)OC1=C([C@H](C)CCC=C(C)C)C(=O)C=C(C)C1=O` [Compound 2, perezone angelate], in experiment [1], the IC50 is 5.25 µM.

For the molecule `CC(C)=CCCC(C)C1=C(O)C(=O)C(C)=C(Sc2ccc(F)cc2CO)C1=O` (centres unmarked) [Compound 9, 2-((4-fluoro-2-(hydroxymethyl)phenyl)thio)-5-hydroxy-3-methyl-6-(6-methylhept-5-en-2-yl)cyclohexa-2.5-diene-1,4-dione], the IC50 is greater than 200 µM in [2]; 145 µM in [3]; 200 µM in experiment [4]; 83.2 µM in experiment [5]; greater than 200 µM in [6]; 186 µM in experiment [7]. Besides, the IC50 in experiment [8] came to 179 µM; in experiment [9] it was 317 nM.
